Experimental data as given in patent US4394383A, “N-Alkoxysulfenylcarbamates useful as insecticides” (priority 1981, dated 1983).
Like-named read-outs stand apart in the source and are kept apart here.

Experiments:
Format in all cases: in vivo
[1] = Mammalian toxicity, oral, Swiss white mice; conditions: mouse, in vivo, po
Description: (§1) Mammalian toxicity was determined against Swiss white mice. The test compound was applied orally using corn oil as the carrier. Results are given as LD50 in mg of compound per kg body weight.
(§2) The term "LD50 " represents the dose needed to kill 50% of the test animals. In interpreting the values in the table above, the lower the value for LD50 for house flies, the greater the insecticidal potency or toxicity of that particular compound. On the other hand, the higher the value of LD50 for mice, the lower the mammalian toxicity or the greater is the mammalian safety of such compound.

[2] = test system: house flies, Musca domestica; experiment: Insecticidal activity against house flies, topical application on the notum, 24 h mortality; conditions: for LD50: Musca domestica
Description: Representative compounds of the N-alkoxysulfenylcarbamate esters of the invention were tested for insecticidal activity against house flies, Musca domestica. Stock 1% concentrated solutions of each of the test compounds were made in acetone, and such solutions diluted with acetone to a concentration of 0.001-0.1%. House flies were treated topically on the notum by 1 μl of each of the diluted acetone solutions and percent mortality was counted 24 hours after application. Insects were held at constant temperature of 60° F.
as §2

Swiss white mice = experiment: Mammalian toxicity, oral, Swiss white mice; conditions: mice / mammals; comparison with parent carbamate or purified compound
Description: as §1, §2

[3] = Table 2, polysulfide derivatives, oral in corn oil, read-out: Mice Toxicity LD50
[4] = Table 1, oral in corn oil, samples contained polysulfide derivative in the amounts indicated, read-out: Mice LD50

Row | SMILES | LD50 ([2]; read-out: House flies LD50) | LD50 [1, 4] | also measured
1 | CCCCCCOSN(C)C(=O)Oc1cccc2c1OC(C)(C)C2 [CH2 (CH2)4 CH3, n = 1, 2,3-dihydro-2,2-dimethyl-7-benzofuranyl(hexyloxysulfenyl)(methyl)carbamate] |  |  | LD50 [1, 3]: 37 mg/kg; House flies LD50 ([2]; Table 2, polysulfide derivatives): 9.3 µg/g
2 | CCCCCCOSSN(C)C(=O)Oc1cccc2c1OC(C)(C)C2 [CH2 (CH2)4 CH3, n = 2, disulfide derivative of 2,3-dihydro-2,2-dimethyl-7-benzofuranyl(hexyloxysulfenyl)(methyl)carbamate] | 13 mg/kg |  | LD50 [1, 3]: 72 mg/kg
3 | COSSN(C)C(=O)Oc1cccc2c1OC(C)(C)C2 [CH3, n = 2, disulfide derivative of 2,3-dihydro-2,2-dimethyl-7-benzofuranyl(methoxysulfenyl)(methyl)carbamate] | 20.5 mg/kg |  | LD50 [1, 3]: 48 mg/kg
4 | CNC(=O)Oc1cccc2c1OC(C)(C)C2 [Carbofuran, 2,3-dihydro-2,2-dimethyl-7-benzofuranyl methylcarbamate, reference compound] | 11 mg/kg |  | LD50 [1, 3]: 11 to 19 mg/kg; LD50 ([1]; read-out: LD50 for mice): 11 mg/kg; LD50 ([2]; read-out: LD50 value for house flies): ~11 mg/kg
5 | COSN(C)C(=O)Oc1cccc2c1OC(C)(C)C2 [Example 1, 2,3-dihydro-2,2-dimethyl-7-benzofuranyl(methoxysulfenyl)(methyl)carbamate] | 15.5 mg/kg | 43 mg/kg | LD50 [1, 3]: 43 mg/kg
6 | CCOSN(C)C(=O)Oc1cccc2c1OC(C)(C)C2 [Example 2, 2,3-dihydro-2,2-dimethyl-7-benzofuranyl(ethoxysulfenyl)(methyl)carbamate] | 15.8 mg/kg | 46 mg/kg | 
7 | CC(C)OSN(C)C(=O)Oc1cccc2c1OC(C)(C)C2 [Example 3, 2,3-dihydro-2,2-dimethyl-7-benzofuranyl(isopropoxysulfenyl)(methyl)carbamate] | 31 mg/kg | 55 to 70 mg/kg | 
8 | CCCCCCOSN(C)C(=O)Oc1cccc2c1OC(C)(C)C2 [Example 4, 2,3-dihydro-2,2-dimethyl-7-benzofuranyl(hexyloxysulfenyl)(methyl)carbamate] | 9.3 mg/kg | 88 mg/kg | 
9 | CN(SOC1CCCCC1)C(=O)Oc1cccc2c1OC(C)(C)C2 [Example 5, 2,3-dihydro-2,2-dimethyl-7-benzofuranyl(cyclohexyloxysulfenyl)(methyl)carbamate] | 21.5 mg/kg | 69 mg/kg | 
10 | CN(SOCc1ccccc1)C(=O)Oc1cccc2c1OC(C)(C)C2 [Example 6, 2,3-dihydro-2,2-dimethyl-7-benzofuranyl(benzyloxysulfenyl)(methyl)carbamate] | 7.5 mg/kg | 59 mg/kg | 
11 | CCCCCCCCCCCCOSN(C)C(=O)Oc1cccc2c1OC(C)(C)C2 [Example 7, 2,3-dihydro-2,2-dimethyl-7-benzofuranyl(dodecyloxysulfenyl)(methyl)carbamate] | 21 mg/kg | 340 mg/kg | 
12 | CCCCOSN(C)C(=O)Oc1ccccc1OC(C)C [Example 8, 2-isopropoxyphenyl(butoxysulfenyl)(methyl)] | 46 mg/kg | > 1000 mg/kg | 
13 | CC(C)Oc1ccccc1OC(=O)N(C)SOCc1ccccc1 [Example 9, 2-isopropoxyphenyl(benzyloxysulfenyl)(methyl)carbamate] | 30 mg/kg | > 1000 mg/kg | LD50 ([1]; read-out: LD50 for mice): > 1000 mg/kg; mammalian toxicity / safety (in words) (Swiss white mice): much safer to mammals
14 | CCCCOSN(C)C(=O)Oc1cccc(C(C)C)c1 [Example 10, 3-isopropylphenyl(butoxysulfenyl)(methyl)carbamate] | 120 mg/kg | 130 mg/kg | 
15 | CC(C)c1cccc(OC(=O)N(C)SOCc2ccccc2)c1 [Example 11, 3-isopropylphenyl(benzyloxysulfenyl)(methyl)carbamate] | 175 mg/kg | 210 mg/kg | 
16 | CCC(CC)OSN(C)C(=O)Oc1cccc2c1OC(C)(C)C2 [Example 12, 2,3-Dihydro-2,2-dimethyl-7-benzofuranyl (1-ethylpropoxysulfeny)(methyl)carbamate] | 21 mg/kg | 63 mg/kg | 
17 | CN(SOC(C)(C)C)C(=O)Oc1cccc2c1OC(C)(C)C2 [Example 13, 2,3-Dihydro-2,2-dimethyl-7-benzofuranyl (tert-butoxysulfenyl)(methyl)carbamate] | 20 to 30 mg/kg | 75 mg/kg | 
18 | CCCCCCCCOSN(C)C(=O)Oc1cccc2c1OC(C)(C)C2 [Example 14, 2,3-Dihydro-2,2-dimethyl-7-benzofuranyl (methyl)-(octyloxysulfenyl)carbamate] | 13 mg/kg | 100 mg/kg | 
19 | CCCCCCCCCCOSN(C)C(=O)Oc1cccc2c1OC(C)(C)C2 [Example 15, 2,3-Dihydro-2,2-dimethyl-7-benzofuranyl (decyloxysulfenyl)(methyl)carbamate] | 7.3 mg/kg | 135 mg/kg | 
20 | COc1ccc(COSN(C)C(=O)Oc2cccc3c2OC(C)(C)C3)cc1 [Example 16, 2,3-Dihydro-2,2-dimethyl-7-benzofuranyl (P--methoxybenzyloxysulfenyl)(methyl)carbamate] | 13.8 mg/kg | 108 mg/kg | 
21 | CN(SOCc1ccc(C(C)(C)C)cc1)C(=O)Oc1cccc2c1OC(C)(C)C2 [Example 17, 2,3-Dihydro-2,2-dimethyl-7-benzofuranyl (P--tert-butylbenzyloxysulfenyl)(methyl)carbamate] | 15.5 mg/kg | 98 mg/kg | 
22 | CCCCCCCCCCCCCCCCCCOSN(C)C(=O)Oc1cccc2c1OC(C)(C)C2 [Example 18, 2,3-Dihydro-2,2-dimethyl-7-benzofuranyl (methyl)(octadecyloxysulfenyl)carbamate] | 75 mg/kg | ≥ 1000 mg/kg | 
23 | CNC(=O)Oc1ccccc1OC(C)C [propoxur, 2-isopropoxyphenyl methylcarbamate, reference compound] |  |  | LD50 ([1]; read-out: LD50 for mice): 62 mg/kg
